Experimental data: publication PMC12040169 (PLOS Biology, 2025)

Experiment: in vitro
Details: human, hela cells, % viability

SMILES | viability at 28.5 h, 10 µM [%] | viability at 28.5 h, 10 µM (bulk resorufin, single well) [%]
Oc1cccc(-c2cc(CC3(NCc4ccc(F)cc4)COC3)no2)c1 [CBK289646] | 108 | 
CN1CCN(C(=O)c2ccc(-c3cccc(C(=O)NCCO)c3)nc2N(C)C)CC1 [CBK076581] | 91.8 | 
O=[N+]([O-])c1ccc(/C=N/c2ccc(Cc3ccc(/N=C/c4ccc([N+](=O)[O-])s4)cc3)cc2)s1 [CBK261228] | 98.3 | 
COc1cccc2cc(C(=O)C3=C(O)C(=O)N(CCN4CCOCC4)C3c3cccc(Cl)c3)oc12 (stereo not drawn) [CBK266599] | 100 | 
COc1cc(CN2CCN(c3ccccn3)CC2)ccc1O [CBK261537] | 118 | 
OCc1nc(-c2cccnc2)co1 [CBK018811] | 106 | 
CCOC(=O)c1cn(CC2(CO)CCC2)cc(Oc2ccccc2)c1=O [CBK306698] | 97.2 | 
Cc1ccc(C(=O)NC(C)c2nnc(SCC(=O)c3ccc(Br)cc3)n2C)cc1 (stereo not drawn) [CBK266183] | 93.8 | 
CC(=O)Nc1nnc(SCC(=O)NCc2ccc3c(c2)OCO3)s1 [CBK287626] | 94 | 
CSCc1nc2ccccc2n1CC(=O)N(CCC#N)Cc1ccco1 [CBK305440] | 97.7 | 
CCOC(=O)CN1C(c2ccccc2O)Nc2ccc(Br)cc2C1c1ccccc1 (stereo not drawn) [CBK263130] | 90.5 | 
NC(=O)CN1CCC2(CCN(C(=O)c3cc(F)c(F)cc3F)C2)C1 (stereo not drawn) [CBK132140] | 86.6 | 
O=C(c1cccc(F)c1)N1CCCC1c1n[nH]cc1-c1ccncc1 (stereo not drawn) [CBK283437] | 93.2 | 
CCN(Cc1cnn(C)c1)S(=O)(=O)c1ccc2c(c1)CCCC(=O)N2 [CBK304782] | 100 | 
COc1cc(CNCC2CCCO2)cc(Cl)c1OCC(N)=O (stereo not drawn) [CBK270238C] | 88.4 | 
O=C1CC2(CCN(C(=O)c3ccoc3)CC2)Oc2ccc3ccccc3c21 [CBK156444] | 91 | 
O=C(Nc1ccc(NC(=O)c2cc3ccccc3o2)cc1)c1ccc(-c2cccc([N+](=O)[O-])c2)o1 [CBK268579] | 86.8 | 
CC(=O)Nc1ccc(S(=O)(=O)N2CCN(CCO)CC2)cc1 [CBK262196] | 95.1 | 
CCCCc1ccc(NC(=O)CSc2nnc(N)s2)c(C)c1 [CBK057659] | 91.9 | 
CN(C)c1nc(NC2CC2)nc(Oc2ccc(=O)n(-c3ccccc3)n2)n1 [CBK270187] | 93.9 | 
CCCC/C=C/c1cnc(N)c(-c2ccc(CCC(=O)O)cc2)n1 [CBK064127] | 95.5 | 
CCN(Cc1ccccc1)[C@@H](CO)Cc1ccc(OC)cc1 [CBK073856T] | 89.6 | 
CC(CNC(=O)c1cncc(O)c1)NC(=O)c1cncc(O)c1 (stereo not drawn) [CBK278174] | 89.2 | 

SMILES | viability at 28.5 h, 10 µM [%] | viability at 28.5 h, 10 µM (bulk resorufin, single well) [%]
CCOc1ccccc1NC(=O)CC1Sc2ccc(C(F)(F)F)cc2NC1=O (stereo not drawn) [CBK263659] | 95.6 | 
Cc1ccc(OCC(=O)NCCCN(C)C)cc1 [CBK263595] | 98.3 | 
O=[N+]([O-])c1ccc(N2CCN(Cc3ccccc3)CC2)cc1NCc1ccccc1 [CBK045841] | 86.9 | 
Cc1cc(COc2nccnc2OC2CCN(Cc3ccc(Cl)cc3)CC2)no1 [CBK082949T] | 85.7 | 
O=C(O)c1cccc(NS(=O)(=O)c2ccc(-c3cc(C(F)(F)F)on3)s2)c1 [CBK155722] | 98 | 
C=CCN1CC2(c3ccccc3)CN(CC=C)CC(c3ccccc3)(C1)C2=O [CBK265987] | 86.3 | 
O=C(O)CCCc1nc(-c2cnc3n(c2=O)CCS3)no1 [CBK008438] | 90.1 | 
O=C(NCCO)c1cccc(-c2cc(N3CCCC3CO)n3nccc3n2)c1 (stereo not drawn) [CBK037187] | 96.7 | 
C=CCNc1nccnc1-c1ccncc1 [CBK036845] | 90.7 | 
Nc1ccc(Cl)cc1C(O)(CCCN1CCCCC1)c1ccccc1 (stereo not drawn) [CBK023107] | 98.1 | 
COc1ccccc1CN1CCC2(CCCNC2=O)CC1 [CBK284823] | 85.2 | 
O=C(Nc1cccnc1)c1cnc2cc(C(F)(F)F)ccc2c1O [CBK107474] | 77.8 | 
COc1ccc(Nc2nc(N)nc(CSC(=S)N3CCN(C)CC3)n2)cc1 [CBK265232] | 90.8 | 
COc1ccc(OCc2nn(-c3nc4ccccc4s3)c(N)c2-c2ccccc2)cc1 [CBK266539] | 98.5 | 
CCCCOc1ccc(Sc2nc(C)cc(C)n2)cc1 [CBK009219] | 92.1 | 
Cc1nn(C)c(Cl)c1S(=O)(=O)Nc1ccc2cc(Br)cnc2n1 [CBK073892] | 78.3 | 
COc1cc(Cl)ccc1NC(=O)Oc1cccc2cnccc12 [CBK012882] |  | 79.9
CCOC(=O)N1CCN(S(=O)(=O)c2ccc3[nH]c(=O)oc3c2)CC1 [CBK304679] | 105 | 
O=C(CNC(=O)c1cccc(F)c1)N/N=C1/C(=O)N(Cc2ccc3c(c2)OCO3)c2ccccc21 [CBK263519] | 102 | 
CC(C)N(C(=O)N1CCC2(CC1)CC(=O)c1ccccc1O2)C(C)C [CBK284010] | 90.7 | 
O=C1NC2CCCCC2NC1CC(=O)N1CCN(C(c2ccccc2)c2ccccc2)CC1 (stereo not drawn) [CBK269201] | 88.7 | 
Nc1ncc(-c2ccco2)nc1-c1ccc(C=O)cc1 [CBK064095] | 102 | 
COc1cc(C(=O)N2CCC3(CC2)CC(=O)c2cc(-c4cccc(C)c4)ccc2O3)cc(OC)c1C [CBK170341] | 87.7 | 

SMILES | viability at 28.5 h, 10 µM [%] | viability at 28.5 h, 10 µM (bulk resorufin, single well) [%]
CCN(CC)CCCNC(=O)N1CCCC(C(=O)N(CC)CC)C1 (stereo not drawn) [CBK156149] | 94.1 | 
CCOc1ccc(OCCC#N)cc1 [CBK015880] | 84.7 | 
Cc1noc(C)c1C(=O)NC(Cc1ccsc1)c1cccnc1 (stereo not drawn) [CBK285100] | 90.3 | 
COc1ccc(-c2cncc(N3CCN(C)CC3)n2)cc1 [CBK065378] | 91.8 | 
CCNc1cc(-c2ccco2)ncn1 [CBK090879] | 108 | 
COc1ccc2nc(NCc3ccccc3)sc2c1 [CBK287485] | 66.8 | 
Cc1ccc(C)c(NC(=O)N2CCC3(CCc4nccc(C)c4C3=O)CC2)c1 [CBK059554] | 91.6 | 
Cc1cc(C(=O)NCCCC2CCOC2)c2cccc(Cl)c2n1 (stereo not drawn) [CBK282550] | 91.7 | 
O=C(C1CCCO1)N1CCC(c2ccc(F)cc2)CC1 (stereo not drawn) [CBK283484] | 81.4 | 
Cc1oc(-c2ccccc2)nc1C(=O)N1CCCN(C)CC1 [CBK073940C] | 105 | 
Cc1c(C)n(Cc2ccco2)c2ncnc(SCCC(=O)O)c12 [CBK307569] | 105 | 
CN1CCN(c2ccc(-c3cc(Nc4cccc(OCc5ccccc5)c4)ncn3)cn2)CC1 [CBK090918] | 113 | 
CCCCc1c(C)nc2ccc(OC)cc2c1SCCC(=O)O [CBK263888] | 98.1 | 
Cc1[nH]c2ccccc2c1C(=O)C(=O)Nc1sc(C)c(C)c1C#N [CBK270038] | 85.9 | 
Cc1cc(COC(=O)N2CCCC(C(F)(F)F)C2)cc(C)n1 (stereo not drawn) [CBK200150] | 92.8 | 
CN(C)c1ccc(C(=O)Nc2nnc(C3=COCCO3)o2)cc1 [CBK287415] | 98.8 | 
c1ccc(N2CCOCC2)c(COc2cncc(N3CCNCC3)n2)c1 [CBK172351G] | 105 | 
O=c1cc2nc(-c3ccccc3F)[nH]c(=S)n2[nH]1 [CBK288402] | 95.5 | 
Clc1ccccc1CSc1nnc2c(n1)OC=Nc1ccccc1-2 [CBK265085] | 99.1 | 
CS(=O)(=O)N(CC(=O)NC1CCCCCCC1)c1ccccc1 [CBK270112] | 96.1 | 
CCC(C)(NC=O)C(=O)Nc1ccccc1C(=O)O (stereo not drawn) [CBK287177] | 97 | 
CCc1c(C)nc2c(C(=O)NCCOC)cnn2c1C [CBK162143] | 93.9 | 
O=C(COc1cccnc1)N1CCCc2ccccc21 [CBK200258] | 92.5 | 

SMILES | viability at 28.5 h, 10 µM [%] | viability at 28.5 h, 10 µM (bulk resorufin, single well) [%]
CCN(CCc1nc2cc(OC)ccc2[nH]1)C(=O)c1ccc(=O)n(C)c1 [CBK307312] | 77 | 
COc1ccc(C(=O)N2CCC3(CCN(Cc4c(F)cccc4F)C3)C2)cc1OC (stereo not drawn) [CBK132152] | 92.8 | 
O=C(Nc1ccc(NC(=O)c2cc(O)nc3ccccc23)cc1)c1ccccc1 [CBK269722] | 106 | 
CC(C)(C)Cc1ccc(CC(=O)O)c(OCc2ccccc2)n1 [CBK012508] | 92.6 | 
Cn1nccc1CN1CCC(Oc2ccccc2F)CC1 [CBK281618] | 92 | 
Cc1c(N)c(=O)n2nc(C(F)(F)F)nc2n1C [CBK020172] | 90.4 | 
CC(=O)c1ccc(NC(=O)CSc2nnc(-c3ccncc3)s2)cc1 [CBK269183] | 85.1 | 
COc1cccc(CNC(=O)C2CCN(c3nc4c(-c5cccc(C)c5)csc4c(=O)[nH]3)CC2)c1 [CBK215603] | 84.9 | 
O=C(Nc1ccc2oc(-c3cccnc3)nc2c1)c1sc2cc(Cl)ccc2c1Cl [CBK267876] | 97.4 | 
Cc1cc(Cl)ccc1CNC(=O)C1(c2ccccc2)CCCC1 [CBK149519] | 88.6 | 
CCCOC1CCCN(Cc2c(C)n(CC(N)=O)c3ccccc23)C1 (stereo not drawn) [CBK282797] | 99.2 | 
O=C(Nc1cccc(-c2nc3ccccc3s2)c1)c1ccc(Cn2cnnn2)cc1 [CBK285823] | 85.2 | 
CCn1cc(C(=O)N2CCC(C(=O)OC)CC2)c(=O)c2ccc(C)nc21 [CBK305848] | 110 | 
C=CCNc1nccnc1-c1cccc(O)c1 [CBK088505] | 88.2 | 
N#C/C(=C\c1ccc(C(=O)O)cc1)C(=O)NCC1CCCO1 (stereo not drawn) [CBK263228] | 95 | 
CCOC(=O)c1sc(NS(=O)(=O)Cc2ccccc2[N+](=O)[O-])nc1C [CBK047458] | 98.5 | 
CC(C)Oc1ccc(C(=O)N2CC(C)C(N3CCOCC3)C2)cn1 (stereo not drawn) [CBK304497] | 110 | 
CC1CCN(S(=O)(=O)c2ccc(NC(=O)CCn3c(=O)oc4ccccc43)cc2)CC1 [CBK268040] | 97.1 | 
N#Cc1c(Cl)cccc1Oc1ccc(S(=O)(=O)Nc2cccc(C(=O)O)c2)cc1 [CBK155718] | 108 | 
Cc1cc(Cl)ccc1CNC(=O)c1ccc2[nH]ccc2c1 [CBK149048] | 81.7 | 
CC(SCC(=O)Nc1ccc(F)cc1)c1nc2ccccc2c(=O)[nH]1 (stereo not drawn) [CBK269200] | 105 | 
